Measurements as given in ChEMBL document CHEMBL3886502, “Pyrrolinone carboxamide compounds useful as endothelial lipase inhibitors” (2016).

Molecular target: T1, Endothelial lipase (Homo sapiens, UniProt Q9Y5X9)
T1 sequence (Q9Y5X9 whole entry): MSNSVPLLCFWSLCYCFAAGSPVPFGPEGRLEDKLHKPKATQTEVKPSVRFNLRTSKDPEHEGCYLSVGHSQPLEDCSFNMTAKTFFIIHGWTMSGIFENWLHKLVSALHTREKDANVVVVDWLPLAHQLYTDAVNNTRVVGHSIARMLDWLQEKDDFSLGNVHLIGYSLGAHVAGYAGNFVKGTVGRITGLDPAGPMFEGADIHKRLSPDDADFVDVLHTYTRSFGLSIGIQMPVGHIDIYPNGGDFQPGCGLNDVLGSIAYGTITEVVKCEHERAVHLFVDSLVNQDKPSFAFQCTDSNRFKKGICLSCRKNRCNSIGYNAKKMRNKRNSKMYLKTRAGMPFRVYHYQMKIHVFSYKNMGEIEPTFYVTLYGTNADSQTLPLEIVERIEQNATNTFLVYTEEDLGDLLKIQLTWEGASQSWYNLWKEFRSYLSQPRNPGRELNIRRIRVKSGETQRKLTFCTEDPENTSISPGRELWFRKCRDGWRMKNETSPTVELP
Assay: Enzyme Assay: The enzymatic assay was measured using white, opaque 96-well half area plates. Each well contained 60 uL of assay buffer (50 mM HEPES pH 8.0, 50 mM NaCl and 1 mM CaCl2) and 2 ul of a DMSO solution containing compound of interest. Conditioned media obtained from HT-1080 cells, which were transformed by RAGE technology (Athersys) to overexpress endogenous EL, was added and the reaction was allowed to incubate for 20 min at 37° C. with gentle agitation. The reaction was started by the addition of 20 uL of a 1:4 dilution of vesicles. The final total reaction volume was 100 uL. The reaction rates were measured on a Gemini plate reader with an excitation wavelength of 488 nm and a emission of 530 nm. Readings were taken every 20 seconds for 10 min with agitation between each reading.
Type: cell-based

O=C(NCCCc1ccc(Cl)c(Cl)c1)C1=C(O)C(=O)N(Cc2ccccc2C(=O)O)C1
IC50: 488 nM

CN1CC(C(=O)NCCCc2ccccc2C(F)(F)F)=C(O)C1=O
IC50: 436 nM

CC1C(C(=O)NCCCc2ccc(Cl)c(Cl)c2)=C(O)C(=O)N1CCc1ccc(F)cc1 (stereo not drawn)
IC50: 486 nM
